{"source": "patent US20240398771A1", "about": "“TREATMENT OF SCLERODERMA AND RAYNAUD'S SYNDROME” (Aisa Pharma, Inc., priority 2023, published 2024)", "key": {"participants with SSc-RP [1]": {"tested_on": "participants with SSc-RP", "experiment": "Average daily Raynaud's Condition Score (RCS)", "assay_type": "in vivo, human", "parameters": "key to Average Daily RCS: Baseline, Mean / Average Daily RCS: Baseline, Median: daily RCS on VAS 0-10 cm scale", "settings": "excluding outliers, ITT Part A", "description": "(§1) The relevant metrics measured by this tool daily are: • Study medication • SSc-RP symptoms (Reporting an attack including duration of attack) • Severity of the attack considering all symptoms of the attack e.g. tingling, numbness, pain, color changes (VAS 0-10 cm scale) • Participant's location at the time of the attack (inside home/outside home) • Selecting symptoms experienced during the attack (tingling, numbness, pain, color changes, other) • Pain rating during the attack (11-point Likert scale) • The RCS based on how much difficulty participants had with Raynaud's today, how many attacks the participant had, and how long they lasted. Participants will also be asked to consider how much pain, numbness, or other symptoms the Raynaud's caused in fingers (including painful sores), and how much the Raynaud's alone affected the use of hands today (VAS 0-10 cm scale).\nThe RCS is based on how much difficulty participants had with Raynaud's today, how many attacks the participant had, and how long they lasted. In addition participants were and will be asked to consider how much pain, numbness, or other symptoms the Raynaud's caused in fingers (including painful sores), and how much the Raynaud's along affected the use of hand today (VAS 0-10 cm scale).\nThe absolute change in average daily RCS from baseline to the end of each dosing period was and will be a secondary outcome variable. The sponsor-developed participant-informed diary has been and will be used to record data. The average daily RCS is defined as the total RCS divided by the number of days with available diary data of each dosing period. Total RCS during screening period divided by the number of days with available data will be used as baseline for the analysis of all periods. If there are multiple daily RCS scores, the latest daily RCS will be used. The variable will be calculated similar to frequency data as before."}, "participants with SSc-RP [2]": {"tested_on": "participants with SSc-RP", "experiment": "Average duration of weekly RP attacks, all attacks (minutes)", "assay_type": "in vivo, human", "settings": "Excluding Outliers, ITT Population - Part A (Table B-6)", "description": "as §1\nThe absolute change in average duration of weekly RP attacks from baseline to the end of each dosing period was and will be a secondary outcome variable. The sponsor-developed participant-informed diary was and will be used to record data. Average duration of weekly RP attacks is defined as the total duration of RP attacks divided by total number of RP attacks within the last 7 days of each dosing period. Total duration of RP attacks during the last 7 days of screening period divided by the total number of RP attacks will be used as baseline for the analysis of all periods. The variable will be calculated similar to frequency data as before."}, "[3]": {"settings": "Pooled Cilnidipine 20 mg and Cilnidipine 20 mg + Tadalafil 5 mg"}, "[4]": {"settings": "last 7 days of dosing period, listed as Cilnidipine 10 mg"}, "[5]": {"settings": "last 7 days of dosing period, listed as Cilnidipine 20 mg"}, "[6]": {"settings": "last 7 days of dosing period, listed as Pooled Cilnidipine"}, "[7]": {"settings": "last 7 days of screening period, listed as Cilnidipine 10 mg"}, "[8]": {"settings": "last 7 days of screening period, listed as Cilnidipine 20 mg"}}}
{"smiles": "COCCOC(=O)C1=C(C)NC(C)=C(C(=O)OC/C=C/c2ccccc2)C1c1cccc([N+](=O)[O-])c1", "note": "(stereo not shown) [Cilnidipine, 1,4-dihydro-2,6-dimethyl,4-(3-nitrophenyl)-3,5-pyridinedicarboxylic acid 2-methoxyethyl (2 E)-3-phenyl-2-propenyl ester]", "values": [{"measurement": "Average Daily RCS: Baseline, Mean", "setting": "participants with SSc-RP [1]; Cilnidipine 10 mg", "result": 2.74}, {"measurement": "Average Daily RCS: Baseline, Median", "setting": "participants with SSc-RP [1]; Cilnidipine 10 mg", "result": 2.74}, {"measurement": "Average Daily RCS (dosing period), Mean", "setting": "participants with SSc-RP [1]; Cilnidipine 20 mg", "result": 2.90}, {"measurement": "Average Daily RCS (dosing period), Median", "setting": "participants with SSc-RP [1]; Cilnidipine 20 mg", "result": 2.90}, {"measurement": "Average Daily RCS: Baseline, Median", "setting": "participants with SSc-RP [1]; Cilnidipine 20 mg", "result": 3.35}, {"measurement": "Average Daily RCS: Baseline, Mean", "setting": "participants with SSc-RP [1]; Pooled Cilnidipine 10 mg and Cilnidipine 10 mg + Tadalafil 5 mg", "result": 4.07}, {"measurement": "Average Daily RCS (dosing period), Mean", "setting": "participants with SSc-RP [1]; [3]", "result": 3.60}, {"measurement": "Average Daily RCS: Baseline, Mean", "setting": "participants with SSc-RP [1]; [3]", "result": 4.68}, {"measurement": "Average Daily RCS: Baseline, Median", "setting": "participants with SSc-RP [1]; [3]", "result": 3.74}, {"measurement": "Average Daily RCS: Baseline, Mean", "setting": "participants with SSc-RP [1]; Pooled Cilnidipine", "result": 3.15}, {"measurement": "Average Daily RCS: Baseline, Median", "setting": "participants with SSc-RP [1]; Pooled Cilnidipine", "result": 2.80}, {"measurement": "Average Duration of weekly RP attacks (All Attacks), Max", "setting": "participants with SSc-RP [2]; [4]", "result": "31.5, 31.5 minutes"}, {"measurement": "Average Duration of weekly RP attacks (All Attacks), Min", "setting": "participants with SSc-RP [2]; [4]", "result": "31.5, 31.5 minutes"}, {"measurement": "Average duration of weekly RP attacks (All Attacks), Change from Baseline, Max", "setting": "participants with SSc-RP [2]; [4]", "result": "−8.5, −8.5 minutes"}, {"measurement": "Average duration of weekly RP attacks (All Attacks), Change from Baseline, Min", "setting": "participants with SSc-RP [2]; [4]", "result": "−8.5, −8.5 minutes"}, {"measurement": "Average duration of weekly RP attacks (All Attacks), Change from Baseline, Q1", "setting": "participants with SSc-RP [2]; [4]", "result": "−8.48, −8.48 minutes"}, {"measurement": "Average duration of weekly RP attacks (All Attacks), Change from Baseline, Q3", "setting": "participants with SSc-RP [2]; [4]", "result": "−8.48, −8.48 minutes"}, {"measurement": "Average duration of weekly RP attacks (All Attacks), Percent Change from Baseline, Max", "setting": "participants with SSc-RP [2]; [4]", "result": "−21.2, −21.2%"}, {"measurement": "Average Duration of weekly RP attacks (All Attacks)", "setting": "participants with SSc-RP [2]; [5]", "result": 3.0, "unit": "min"}, {"measurement": "Average Duration of weekly RP attacks (All Attacks), Max", "setting": "participants with SSc-RP [2]; [5]", "result": 30.5, "unit": "min"}, {"measurement": "Average Duration of weekly RP attacks (All Attacks), Q1", "setting": "participants with SSc-RP [2]; [5]", "result": 3.00, "unit": "min"}, {"measurement": "Average duration of weekly RP attacks (All Attacks), Change from Baseline", "setting": "participants with SSc-RP [2]; [5]", "result": -7.6, "unit": "min"}, {"measurement": "Average duration of weekly RP attacks (All Attacks), Change from Baseline, Max", "setting": "participants with SSc-RP [2]; [5]", "result": 5.5, "unit": "min"}, {"measurement": "Average duration of weekly RP attacks (All Attacks), Change from Baseline, Q3", "setting": "participants with SSc-RP [2]; [5]", "result": 5.45, "unit": "min"}, {"measurement": "Average duration of weekly RP attacks (All Attacks), Percent Change from Baseline, Max", "setting": "participants with SSc-RP [2]; [5]", "result": 21.8, "unit": "%"}, {"measurement": "Average duration of weekly RP attacks (All Attacks), Percent Change from Baseline, Min", "setting": "participants with SSc-RP [2]; [5]", "result": "−71.8", "unit": "%"}, {"measurement": "Average duration of weekly RP attacks (All Attacks), Percent Change from Baseline, Q1", "setting": "participants with SSc-RP [2]; [5]", "result": "−71.76", "unit": "%"}, {"measurement": "Average duration of weekly RP attacks (All Attacks), Percent Change from Baseline, Q3", "setting": "participants with SSc-RP [2]; [5]", "result": 21.82, "unit": "%"}, {"measurement": "Average Duration of weekly RP attacks (All Attacks)", "setting": "participants with SSc-RP [2]; [6]", "result": 3.0, "unit": "min"}, {"measurement": "Average Duration of weekly RP attacks (All Attacks), Max", "setting": "participants with SSc-RP [2]; [6]", "result": 31.5, "unit": "min"}, {"measurement": "Average Duration of weekly RP attacks (All Attacks), Q1", "setting": "participants with SSc-RP [2]; [6]", "result": 3.00, "unit": "min"}, {"measurement": "Average duration of weekly RP attacks (All Attacks), Change from Baseline", "setting": "participants with SSc-RP [2]; [6]", "result": -8.5, "unit": "min"}, {"measurement": "Average duration of weekly RP attacks (All Attacks), Change from Baseline, Max", "setting": "participants with SSc-RP [2]; [6]", "result": 5.5, "unit": "min"}, {"measurement": "Average duration of weekly RP attacks (All Attacks), Change from Baseline, Q1", "setting": "participants with SSc-RP [2]; [6]", "result": -8.48, "unit": "min"}, {"measurement": "Average duration of weekly RP attacks (All Attacks), Change from Baseline, Q3", "setting": "participants with SSc-RP [2]; [6]", "result": 5.45, "unit": "min"}, {"measurement": "Average duration of weekly RP attacks (All Attacks), Percent Change from Baseline, Max", "setting": "participants with SSc-RP [2]; [6]", "result": 21.8, "unit": "%"}, {"measurement": "Average duration of weekly RP attacks (All Attacks), Percent Change from Baseline, Min", "setting": "participants with SSc-RP [2]; [6]", "result": "−71.8", "unit": "%"}, {"measurement": "Average duration of weekly RP attacks (All Attacks), Percent Change from Baseline, Q1", "setting": "participants with SSc-RP [2]; [6]", "result": "−71.76", "unit": "%"}, {"measurement": "Average duration of weekly RP attacks (All Attacks), Percent Change from Baseline, Q3", "setting": "participants with SSc-RP [2]; [6]", "result": 21.82, "unit": "%"}, {"measurement": "Average duration of weekly RP attacks (All Attacks), Baseline, Max", "setting": "participants with SSc-RP [2]; [7]", "result": "40.0, 40.0 minutes"}, {"measurement": "Average duration of weekly RP attacks (All Attacks), Baseline, Min", "setting": "participants with SSc-RP [2]; [7]", "result": "40.0, 40.0 minutes"}, {"measurement": "Average duration of weekly RP attacks (All Attacks), Baseline, Q1", "setting": "participants with SSc-RP [2]; [7]", "result": "40.00, 40.00 minutes"}, {"measurement": "Average duration of weekly RP attacks (All Attacks), Baseline, Q3", "setting": "participants with SSc-RP [2]; [7]", "result": "40.00, 40.00 minutes"}, {"measurement": "Average duration of weekly RP attacks (All Attacks), Baseline", "setting": "participants with SSc-RP [2]; [8]", "result": 10.6, "unit": "min"}, {"measurement": "Average duration of weekly RP attacks (All Attacks), Baseline, Max", "setting": "participants with SSc-RP [2]; [8]", "result": 25.0, "unit": "min"}, {"measurement": "Average duration of weekly RP attacks (All Attacks), Baseline, Q1", "setting": "participants with SSc-RP [2]; [8]", "result": 10.63, "unit": "min"}]}
